According to US20260209175A1, “PHARMACEUTICALLY ACCEPTABLE 5-METHOXY-N,N-DIMETHYL[…] AND COMPOSITIONS THEREOF” (priority 2022, published 2026):
Where a name gives a salt, the structure may show the parent alone.

Experiments:
[1] = Dynamic Vapor Sorption (DVS) analysis of salts, with XRPD of the post-DVS sample; assay type: physicochemical; settings: for sorption/desorption behaviour (reversibility, hysteresis): DVS isotherm; for deliquescence during DVS: high RH
Protocol: XRPD diffractograms were acquired using Bruker D2 Phaser diffractometer equipped with LYNXEYE detector. Samples were prepared using a zero-background sample holder. The samples were scanned from 5 to 32° (2θ) using a step size of 0.02° and a time per step of 0.13 second whilst spinning the sample. Diffractograms were plotted using the EVA program from Bruker.
DVS analyses were performed on TA Instrument DVS Q5000. Samples were added to a pre-tared metallised quartz crucible and run at 25° C. from 40% RH to 90% RH, down to zero and back to 40%. This cycle was repeated in increments of 10% RH.

[2] = Thermo-Gravimetric Analysis (TGA), thermal stability; assay type: physicochemical; settings: 10° C./min ramp; for thermally stable up to (TGA): nitrogen
Protocol: TGA thermograms were obtained with a TA Instrument Discovery 550 in Al pans. The heating rate used was 10° C./min linear ramp from 25 to 400° C. with a nitrogen purging at a rate of 60 ml/min. TGA thermograms were analysed using TRIOS software.

[3] = Polymorphism screen of hydrochloride salt (thermal cycling, evaporations), XRPD; assay type: physicochemical; settings: for XRPD Result: lyophilised hydrochloride salt, thermally cycled between ambient and 40° C., three days
Protocol: To render the material amorphous and thus remove seeds of the pattern 1 the material was rendered amorphous. To 2.605 g of the hydrochloride lot RPI-014-022 dioxane (55 ml) and water (5 ml) was added. The mixture was agitated gently and warmed to aid dissolution.
Twenty five of the lyophilised samples were treated with solvent and thermally cycled between ambient and 40° C. with four hours spent under each condition. After three days and solids were isolated by centrifuge filtration and analysed by XRPD.
Twelve samples of the lyophilised material were treated with a minimal volume (ca 0.5 ml) of warm solvent, syringe filtered through a 0.22 µm filter and added to a clean HPLC vial and allowed to evaporate at RT. The solvents used and XRPD results following evaporation are detailed in the Table below: […]

[4] = Solubility assessments in four different media; assay type: physicochemical; settings: 250 mg per vial; for Observation: 1 ml media at 37° C.
Protocol: Solubility assessments of 5-MeO-DMT oxalate, hydrobromide fumarate and benzoate were performed in four different media: […]

[5] = assay type: physicochemical; settings: 40° C./75% RH, three days
Protocol: Salt screening studies with 24 selected counter-ions were performed to determine if 5-MeO-DMT free base is amenable to salt formation. […] Salts were examined by XRPD, TGA, DSC, 1H NMR and some by DVS analyses. Short term physical stability was examined by storage of salts at 40° C./75% RH for three days.
Physical stability stress tests were conducted on generated crystalline salts at controlled temperature and relative humidity. The powder samples were stored at 40° C./75% RH for three days. After this time samples were analysed by XRPD to see whether the physical state of salts changed during the storage.

Question: Which results are given for `COc1ccc2[nH]cc(CCN(C)C)c2c1` [Benzenesulfonate salt, 5-MeO-DMT benzenesulfonate]?
Answer: total water (moisture) uptake between 0% RH and 90% RH ([1]; 25° C): approximately 21 % w/w; sorption/desorption behaviour (reversibility, hysteresis) ([1]; 25° C): hysteresis between 40-80% RH; water uptake up to 60% RH ([1]; first sorption isotherm): 1.2 % w/w; moisture absorption at 70% RH ([1]; first sorption isotherm): 7 % w/w; moisture absorption at 80% RH ([1]; first sorption isotherm): 14 % w/w; deliquescence during DVS [1]: begins to deliquesce; thermally stable up to (TGA) [2]: 250 °C

Question: For `COc1ccc2[nH]cc(CCN(C)C)c2c1.Cl` [DJP2202-007-02], which “XRPD Result” value ([3]; 1-Propanol) is on record?
Answer: Its value is “Pattern 1”.

Question: For `COc1ccc2[nH]cc(CCN(C)C)c2c1.Cl` [DJP2202-007-03], which “XRPD Result” value ([3]; 2-Butanol) is on record?
Answer: Its value is “Pattern 1”.

Question: For `COc1ccc2[nH]cc(CCN(C)C)c2c1.Cl` [DJP2202-007-05], which “XRPD Result” value ([3]; 2-Methyltetrahydrofuran) is on record?
Answer: Its value is “Pattern 1”.

Question: With `COc1ccc2[nH]cc(CCN(C)C)c2c1.Cl` [DJP2202-007-06] as the molecule, how does the “XRPD Result” value ([3]; 2-Propanol) read?
Answer: The value was “Pattern 1”.

Question: With `COc1ccc2[nH]cc(CCN(C)C)c2c1.Cl` [DJP2202-007-07] as the molecule, how does the “XRPD Result” value ([3]; Acetone) read?
Answer: Its value is “Pattern 1”.

Question: With `COc1ccc2[nH]cc(CCN(C)C)c2c1.Cl` [DJP2202-007-08] as the molecule, how does the “XRPD Result” value ([3]; Acetonitrile) read?
Answer: The value was “Pattern 1”.

Question: For `COc1ccc2[nH]cc(CCN(C)C)c2c1.Cl` [DJP2202-007-09], which “XRPD Result” value ([3]; Anisole) is on record?
Answer: The value was “Pattern 1”.

Question: For `COc1ccc2[nH]cc(CCN(C)C)c2c1.Cl` [DJP2202-007-10], which “XRPD Result” value ([3]; Chlorobenzene) is on record?
Answer: Its value is “Pattern 1”.

Question: Which “XRPD Result” value ([3]; Ethanol) does the source give for `COc1ccc2[nH]cc(CCN(C)C)c2c1.Cl` [DJP2202-007-11] here?
Answer: Its value is “Pattern 1”.

Question: For `COc1ccc2[nH]cc(CCN(C)C)c2c1.Cl` [DJP2202-007-12], which “XRPD Result” value ([3]; Ethyl acetate) is on record?
Answer: The value was “Pattern 1”.

Question: Which “XRPD Result” value ([3]; Isopropyl acetate (experiment 007-13)) does the source give for `COc1ccc2[nH]cc(CCN(C)C)c2c1.Cl` [DJP2202-007-13] here?
Answer: Its value is “Pattern 1”.

Question: For `COc1ccc2[nH]cc(CCN(C)C)c2c1.Cl` [DJP2202-007-15], which “XRPD Result” value ([3]; Propyl acetate) is on record?
Answer: The value was “Pattern 1”.

Question: Which “XRPD Result” value ([3]; Methylethyl ketone) does the source give for `COc1ccc2[nH]cc(CCN(C)C)c2c1.Cl` [DJP2202-007-16] here?
Answer: The value was “Pattern 2”.

Question: With `COc1ccc2[nH]cc(CCN(C)C)c2c1.Cl` [DJP2202-007-20] as the molecule, how does the “XRPD Result” value ([3]; iso-Propyl acetate (experiment 007-20)) read?
Answer: Its value is “Pattern 1”.

Question: Which “XRPD Result” value ([3]; 2-Me-1-PrOH) does the source give for `COc1ccc2[nH]cc(CCN(C)C)c2c1.Cl` [DJP2202-007-21] here?
Answer: Its value is “Pattern 1”.

Question: Which “XRPD Result” value ([3]; Tetrahydrofuran) does the source give for `COc1ccc2[nH]cc(CCN(C)C)c2c1.Cl` [DJP2202-007-22] here?
Answer: The value was “Pattern 1”.

Question: For `COc1ccc2[nH]cc(CCN(C)C)c2c1` [Fumarate salt, 5-MeO-DMT fumarate], which “mass difference between 40% RH and 0% RH” value ([1]; salt produced during scale-up) is on record?
Answer: Its value is ~ 2.84%.

Question: And the “solid form after DVS (XRPD post DVS)” value ([1]; salt produced during scale-up)?
Answer: The value was “a change in crystalline form occurred”.

Question: And the “pH after addition of 1 ml media at 37° C.” value (“pH after addition” below) ([4]; SNF)?
Answer: The value was 5.14.

Question: What about the Observation ([4]; SNF) of the same molecule?
Answer: The Observation was “Clear solution”.

Question: And the “pH after addition” value ([4]; pH 1.2 buffer)?
Answer: Its value is 5.24.

Question: What about the Observation ([4]; pH 1.2 buffer) of the same molecule?
Answer: The Observation was “Clear solution”.

Question: And the “pH after addition” value ([4]; pH 4.5 buffer)?
Answer: The value was 5.31.

Question: What about the Observation ([4]; pH 4.5 buffer) of the same molecule?
Answer: Its Observation is “Clear solution”.

Question: And the “pH after addition” value ([4]; pH 6.8 buffer)?
Answer: The value was 5.79.

Question: And the Observation ([4]; pH 6.8 buffer)?
Answer: The Observation was “Clear solution”.

Question: What about the “thermally stable up to (TGA)” value [2] of the same molecule?
Answer: The value was 150 °C.

Question: For `COc1ccc2[nH]cc(CCN(C)C)c2c1.Cl` [Hydrochloride pattern 2, 5-MeO-DMT hydrochloride], which “onset of decomposition / mass loss (TGA)” value ([2]; hydrochloride) is on record?
Answer: The value was “around 256 °C”.

Question: Which “onset of decomposition / mass loss (TGA)” value ([2]; hydrochloride) does the source give for `COc1ccc2[nH]cc(CCN(C)C)c2c1.Cl` [Hydrochloride pattern 3, 5-MeO-DMT hydrochloride] here?
Answer: Its value is “around 260 °C”.

Question: With `COc1ccc2[nH]cc(CCN(C)C)c2c1` [Ketoglutarate salt, 5-MeO-DMT ketoglutarate] as the molecule, how does the “water uptake at 40% RH” value ([1]; first sorption isotherm, 40% RH) read?
Answer: The value was 0.13 % w/w.

Question: What about the “moisture absorption at 80% RH” value ([1]; first sorption isotherm) of the same molecule?
Answer: The value was 2.55 % w/w.

Question: And the “water uptake at 90% RH” value ([1]; first sorption isotherm, 90% RH)?
Answer: The value was 28.14 % w/w.

Question: And the “deliquescence during DVS” value [1]?
Answer: Its value is “deliquesce at high RH”.

Question: What does the source list for `COc1ccc2[nH]cc(CCN(C)C)c2c1.O=C(O)CC(O)C(=O)O` [Malate salt, 5-MeO-DMT malate]?
Answer: crystalline form by XRPD after storage [5]: conversion to a “gum” material; thermally stable up to (TGA) [2]: around 170 °C

Question: Which “total reversible mass change between 0-90% RH” value ([1]; Example 3 Pattern 1 batches, listed as 5-MeO-DMT Phosphate Pattern 1) does the source give for `COc1ccc2[nH]cc(CCN(C)C)c2c1` [Phosphate salt, 5-MeO-DMT phosphate] here?
Answer: Its value is 0.3 wt. %.

Question: And the “crystalline form by XRPD after storage” value [5]?
Answer: Its value is “did not undergo any transformation”.

Question: For `COc1ccc2[nH]cc(CCN(C)C)c2c1` [Saccharinate salt, 5-MeO-DMT saccharinate], which “thermally stable up to (TGA)” value [2] is on record?
Answer: Its value is 200 °C.

Question: For `COc1ccc2[nH]cc(CCN(C)C)c2c1` [Tosylate salt, 5-MeO-DMT tosylate], which “total water (moisture) uptake between 0% RH and 90% RH” value ([1]; 25° C) is on record?
Answer: The value was “approximately 1.9 % w/w”.

Question: What about the “sorption/desorption behaviour (reversibility, hysteresis)” value ([1]; 25° C) of the same molecule?
Answer: Its value is “reversibly without hysteresis”.

Question: What about the hygroscopicity classification ([1]; salt screen / scale-up batches, DVS at 25° C) of the same molecule?
Answer: Its hygroscopicity classification is “slightly hygroscopic (Pharmaceuticals that pick up between 0.2% and 2.0% moisture at 80% RH are considered slightly hygroscopic)”.

Question: What about the “solid form after DVS (XRPD post DVS)” value ([1]; salt screen batches) of the same molecule?
Answer: Its value is “did not undergo any solid-state changes”.

Question: What about the “crystalline form by XRPD after storage” value [5] of the same molecule?
Answer: Its value is “identical XRPD pattern”.

Question: Which “thermally stable up to (TGA)” value [2] does the source give for `COc1ccc2[nH]cc(CCN(C)C)c2c1.O=C(O)c1ccccc1` [benzoate salt pattern 2, 5-MeO-DMT benzoate] here?
Answer: Its value is ~ 170 °C.

Question: For `COc1ccc2[nH]cc(CCN(C)C)c2c1.O=C(O)c1ccccc1` [benzoate salt pattern 3, 5-MeO-DMT benzoate], which “onset of decomposition / mass loss (TGA)” value [2] is on record?
Answer: Its value is “approximately 190 °C”.

Question: Which results are given for `COc1ccc2[nH]cc(CCN(C)C)c2c1.O=C(O)c1ccccc1` [benzoate salt pattern 4, 5-MeO-DMT benzoate]?
Answer: onset of decomposition / mass loss (TGA) [2]: ~ 190 °C; thermally stable up to (TGA) [2]: ~ 190 °C

Question: With `COc1ccc2[nH]cc(CCN(C)C)c2c1` [free base, 5-methoxy-N,N-dimethyltryptamine] as the molecule, how does the “thermally stable up to (TGA)” value [2] read?
Answer: The value was 150 °C.

Question: What does the source list for `COc1ccc2[nH]cc(CCN(C)C)c2c1` [glycolate salt, 5-MeO-DMT glycolate]?
Answer: total moisture uptake between 0% RH and 90% RH, 1st cycle ([1]; 25° C, 1st cycle): approximately 62 % w/w; total moisture uptake between 0% RH and 90% RH, 2nd cycle ([1]; 25° C, 2nd cycle): ~59 % w/w; sorption/desorption behaviour (reversibility, hysteresis) ([1]; 25° C): hysteresis between 40-80% RH; water uptake up to 60% RH ([1]; first sorption isotherm): 2.3 % w/w; moisture absorption at 70% RH ([1]; first sorption isotherm): 11 % w/w; moisture absorption at 80% RH ([1]; first sorption isotherm): 33 % w/w; deliquescence during DVS [1]: begins to deliquesce; thermally stable up to (TGA) [2]: around 155 °C

Question: What does the source list for `COc1ccc2[nH]cc(CCN(C)C)c2c1.Cl` [hydrochloride salt, 5-MeO-DMT hydrochloride]?
Answer: thermally stable up to (TGA) [2]: ~ 235 °C; XRPD Results ([3]; evaporation at RT of lyophilised material from 1-PrOH, DJP2202-011-02): Pattern 1; XRPD Results ([3]; evaporation at RT of lyophilised material from EtOH, DJP2202-011-05): Pattern 1; XRPD Results ([3]; evaporation at RT of lyophilised material from IPA, DJP2202-011-06): Pattern 1; XRPD Results ([3]; evaporation at RT of lyophilised material from MEK, DJP2202-011-11): Pattern 1; XRPD Results ([3]; evaporation at RT of lyophilised material from MeCN, DJP2202-011-12): Oil
